By MIC is commonly meant the smallest concentration in the dilution series that meets the test's criterion for growth inhibition.

The subject of series [1] is Galleria mellonella larvae. As to the kind of experiment: Galleria mellonella tolerability study. The following applies: for survival of larvae: 100 mg/kg and 200 mg/kg injected alone, after 48 h. The method, then: In vitro and in vivo discordances have been observed in antimicrobial chemotherapy, thus, therapeutic efficacy may not necessarily be reliably extrapolated based on in vitro data alone. […] Colistin (100 mg/kg), an antibiotic well known for its toxicity towards eukaryotes, served as a positive control for this experiment while PBS served as negative control. […] Survivability was scored for a total of 4 days.
In vivo larvae-infection model. In vivo synergistic effects were determined using Galleria mellonella infection model, as previously described (20). Briefly, worms were purchased from The Worm Lady® Live Feeder (ON, Canada), stored in their natural habitat at 16° C., and used within 10 days of delivery. The worms (average weight of 250 mg) were used for tolerability and efficacy studies. Tolerability study was performed by injecting 10 μL of antimicrobial agents only at concentrations equivalent to 100 mg/kg or 200 mg/kg. The worms (ten in each group) were incubated at 37° C. and monitored for 96 h. […] Overnight grown culture of respective MDR P. aeruginosa isolate was standardized to 0.5 McFarland standard and diluted in PBS to a final concentration of […]. 10 μL of this solution (5 CFU) was injected into each worm and incubated for 3 h at 37° C. […] Worms treated with 10 μL PBS or high concentrations of test antibiotics served as negative and positive control, respectively. The worms were incubated at 37° C. in Petri dishes lined with filter paper and scored for survivability every 6 h for up to 48 h. This experiment was repeated to give a total of thirty worms (n=30) in each case. Survival data curves were plotted using Kaplan-Meier survival analysis.

The test system of series [2] is wild type P. aeruginosa PAO1. The series is described as follows: Time-kill assay. The following applies: WT PAO1; for interaction with compound 2 in time-kill: 24 h; for time-kill effect, antibiotic alone: at MIC (aztreonam 4 μg/mL, meropenem 1 μg/mL). Format: cell-based, Pseudomonas aeruginosa. The protocol: (§1) Time-kill curves typically reveal the kinetics of bacterial growth and death, with respect to time, at different antimicrobial concentrations. An antibiotic could either be bactericidal or bacteriostatic under specific growth conditions. Bactericidal activity is defined as a ≥3-log reduction in the total CFU/mL from the original inoculum over 24 hours while bacteriostatic activity is defined as maintenance of <3-log reduction in the total CFU/mL from the original inoculum (44). […] Growth curves were initially performed to ensure that strains will reach a stable early- to mid-log phase after 4 h of pre-incubation in antimicrobial-free LB medium.
(§2) Time-kill assay. Time-kill curve analyses were performed by culturing P. aeruginosa in LB medium, in the presence of antibiotics alone and in combination with test adjuvants. MICs of antibiotics and adjuvants were determined before the experiment following CLSI microbroth dilution guidelines. Growth curves were initially performed to confirm that all strains will reach a stable early- to mid-log phase after 4 h of pre-incubation in antimicrobial-free LB medium. A 0.5 McFarland inoculum of each strain was prepared in sterile 0.85% saline solution from an overnight grown culture. For each strain, 30 μl of the prepared inoculum was diluted to 3 ml of LB broth (containing different combinations of antimicrobial agents and adjuvants) and incubated at 37° C. shaking at 250 rpm. At specific time intervals (0, 1, 3, 6, 9, and 24 h), 100 μl was taken from each sample, serially diluted in sterile PBS, plated on LB agar plates, and incubated at 37° C. in a humid 5% CO2-enriched atmosphere. Bacteria colonies were counted after 20 h of incubation.

The test system of another series is MDR PA101885. As to the kind of experiment: Time-kill assay. The following applies: for interaction with compound 2 in time-kill: 24 h; for time-kill effect, antibiotic + compound 2: CLSI breakpoint concentration + 4.4 μM or 8.7 μM compound 2, after about 6 h; for time-kill effect, antibiotic alone: at CLSI breakpoint concentration (aztreonam 8 μg/mL, meropenem 2 μg/mL). Format: cell-based, Pseudomonas aeruginosa. The method, then:
as §1, §2

For series [3] the following is noted: humans; cited from earlier work.
For the next series, the system named is E. coli ATCC 25922. The series is described as follows: MIC, microbroth dilution. Format: cell-based. The following applies: standalone. A digest of the protocol: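 Visible-growth endpoint after 18 h incubation at 37 °C in Mueller-Hinton broth with two-fold compound dilutions; starting inoculum approximately 5×10^5 CFU/mL, CLSI method.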
The next series deals with MDR PA108590. The series is described as follows: Time-kill assay, triple combination. Format: cell-based, Pseudomonas aeruginosa.
In another series the test system is PA108590. As to the kind of experiment: MIC / triple combination susceptibility. In kind it is cell-based, Pseudomonas aeruginosa. The text has this: The diazabicyclooctane β-lactamase inhibitor, avibactam, is able to inhibit a wide range of serine β-lactamases (class A, C, and D) but not metallo-β-lactamases (class B) (50, 51).^50,51 However, the high concentration of avibactam required to neutralize the effects of β-lactamase enzymes in these phenotypes is indicative of concomitant permeability barriers in the isolates, such as reduced porin uptake. […] The results of this study are shown in (FIG. 6). All isolates were resistant to all three β-lactam antibiotics used for the study. […] As expected, the study with meropenem was slightly different from others.
Antimicrobial Susceptibility Assay. The in vitro antimicrobial activity of all compounds/antibiotics against a panel of bacteria was evaluated by microbroth dilution method in accordance with the Clinical and Laboratory Standards Institute (CLSI) guidelines. […]
Checkerboard Assay. […] After incubation, the plates were read on EMax® Plus microplate reader (Molecular Devices, Sunnyvale, Calif., USA) at 590 nm. MIC was recorded as wells with the lowest concentration of drugs with no bacterial growth. The fractional inhibitory concentration (FIC) for each antibiotic was calculated by dividing the MIC of the antibiotic in the presence of adjuvant by the MIC of the antibiotic alone. […]

Series [4] deals with MDR PA108590-challenged larvae. As to the kind of experiment: Galleria mellonella infection model, efficacy. In kind it is in vivo. The text has this:
In vivo larvae-infection model.

For `C[C@H]1[C@H](NC(=O)/C(=N\OC(C)(C)C(=O)O)c2csc(N)n2)C(=O)N1S(=O)(=O)O` [Aztreonam], the survival of larvae in series [1] is on record as 100%. In series [2], the “interaction with compound 2 in time-kill” value is on record as “synergistic” and the “time-kill effect, antibiotic alone” value is recorded as “time-dependent bactericidal effect”. In the series on MDR PA101885, the “interaction with compound 2 in time-kill” value is on record as “synergistic”; the “time-kill effect, antibiotic + compound 2” value is reported as “strongly bactericidal”; the “time-kill effect, antibiotic alone” value is given as “bacteriostatic effect”.

On to `C[C@@H](O)[C@H]1C(=O)N2C(C(=O)O)=C(S[C@@H]3CN[C@H](C(=O)N(C)C)C3)[C@H](C)[C@H]12` [Meropenem], for which the survival of larvae in series [1] is 100%. Besides, the “dose tolerated by larvae” value in series [1] (Galleria mellonella, in vivo, 96 h) is “up to 200 mg/kg”. The achievable plasma concentration in series [3] was more than 8 µg/mL. For the same compound, in series [2], the “interaction with compound 2 in time-kill” value is on record as “indifferent” and the “time-kill effect, antibiotic alone” value is reported as “time-dependent bactericidal effect”. Moreover, in the series with MDR PA101885, the “interaction with compound 2 in time-kill” value is on record as “synergistic”; the “time-kill effect, antibiotic + compound 2” value was “strongly bactericidal”; the “time-kill effect, antibiotic alone” value was “bacteriostatic effect”.

With “5-O-(Octylcyclam)-tobramycin.9TFA [Compound 2]”, the MIC against E. coli ATCC 25922 is 64 mg/L. The “bacterial counts lower than ceftazidime+avibactam” value in the series on MDR PA108590 (ceftazidime + avibactam + compound 2, after 3 h) is more than 2 Log. Further, the “time to sterilization of bacteria culture” value with MDR PA108590 (triple combination ceftazidime + avibactam + compound 2, limit of detection 10 CFU/mL) is not above 3 h. In addition, the “reduction in total CFU/mL from original inoculum” value in the series with MDR PA108590 (triple combination ceftazidime + avibactam + compound 2, within 3 h) is reported as 6 Log. Further, the survival of larvae in series [1] is listed as 100%; in series [4] (ceftazidime+avibactam+compound 2, 1.56+1.56+3.12 mg/kg, after 24 h), 100%; in series [4] (ceftazidime+avibactam+compound 2, 1.56+1.56+3.12 mg/kg, after 36 h), 95%. Also, in the series on PA108590 (triple combination with avibactam and compound 2 (8 μM each), ceftazidime, aztreonam, meropenem), the “potentiation of all three β-lactam antibiotics” value was found to be 128 fold.

For the compound `CC(C)(O/N=C(\C(=O)N[C@@H]1C(=O)N2C(C(=O)[O-])=C(C[n+]3ccccc3)CS[C@H]12)c1csc(N)n1)C(=O)O` [Ceftazidime], the “time-kill effect, alone” value in the series on MDR PA108590 (16 μg/mL, i.e. half MIC, MDR PA108590) was “bactericidal effects after 3 h”. In addition, the survival of larvae is reported as 100% in series [1]; 50% in series [4] (ceftazidime 1.56 mg/kg single dose, after 24 h); 10% in series [4] (ceftazidime 1.56 mg/kg single dose, after 36 h). Also, the MIC with PA108590 (Pseudomonas aeruginosa, P. aeruginosa 108590, FIG. 8 legend) worked out at 0.032 mg/L.

The record behind these values is patent US20210290648A1, “Potentiation of B-Lactam Antibiotics and B-Lactam/B-Lactamase Inhibitor Combinations Against Multidrug and Extensively Drug-Resistant Pseudomonas Aeruginosa Using Non-Ribosomal Tobramycin-Cyclam Conjugates” (University of Manitoba, priority 2018, published 2021).
